Data taken from publication PMC9264115, “Pd-catalyzed C–C and C–N cross-coupling reactions in 2-aminothieno[3,2-d]pyrimidin-4(3H)-one series for antiplasmodial pharmacomodulation” (RSC Advances, 2022).
Like-named read-outs stand apart in the source and are kept apart here.

Tests used:
[1] = test system: K1 culture-adapted P. falciparum strain; set-up: method as in PMID 25791675; settings: K1 strain of P. falciparum; reference values; read-out: EC50 PfK1; cited from earlier work
[2] = test system: HepG2 cell line; settings: cited from earlier work
[3] = test system: K1 culture-adapted P. falciparum strain; experiment: Antiplasmodial evaluation, SYBR Green I fluorescence-based drug susceptibility test; format: cell-based; settings: Plasmodium falciparum; multi-resistant K1 strain of P. falciparum, 72 h incubation, three independent experiments; read-out: EC50 PfK1
Procedure: […]. Parasitemia was maintained daily between 1 and 3%. The P. falciparum drug susceptibility test was carried out by comparing quantities of DNA in treated and control cultures of parasite in human erythrocytes according to a SYBR Green I fluorescence-based method[19] using a 96-well fluorescence plate reader. Compounds previously dissolved in DMSO (final concentration less than 0.5% v/v) were incubated in a total assay volume of 200 μL (RPMI, 2% hematocrit and 0.4% parasitemia) for 72 h in a humidified atmosphere (10% O2 and 5% CO2) at 37 °C in 96-well flat bottom plates. Duplicate assays were performed for each sample. After incubation, plates were frozen at […] for 24 h. Then, the frozen plates were thawed for 1 h at 37 °C. Fifteen μL of each sample were transferred to 96-well flat bottom non-sterile black plates (Greiner Bio-one, Kremsmünster, Austria), already containing 15 μL of the SYBR Green I lysis buffer (2X SYBR Green I, 20 mM Tris base pH 7.5, 20 mM EDTA, 0.008% w/v saponin, 0.08% w/v Triton X-100). […] Plates were incubated for 15 min at 37 °C and then read on a TECAN Infinite F-200 spectrophotometer with excitation and emission wavelengths at 485 and 535 nm, respectively.

[4] = Cytotoxic evaluation, MTT assay; format: cell-based; settings: HepG2 cells, human HepG2 cell line, three independent experiments
Procedure: The HepG2 cell line was maintained at 37 °C, 5% CO2, at 90% humidity in […] supplemented with 10% fetal bovine serum, 1% L-glutamine (200 mM), and penicillin (100 U per mL)/streptomycin (100 μg mL^−1) (complete RPMI medium). The cytotoxicity of the tested molecules on the HepG2 (hepatocarcinoma cell line purchased from ATCC, ref HB-8065) cell line was assessed according to the method of Mosmann[20] with slight modifications. Briefly, 5 × 10^3 cells in 100 μL of complete medium were inoculated into each well of 96-well plates and incubated at 37 °C in humidified 5% CO2. After 24 h incubation, 100 μL of medium with various product concentrations dissolved in DMSO (final concentration less than 0.5% v/v) were added and the plates were incubated for 72 h at 37 °C. Triplicate assays were performed for each sample. Each plate was then microscopically examined for possible precipitate formation before the medium was aspirated from the wells. Next, 100 μL of MTT (3-(4,5-dimethyl-2-thiazolyl)-2,5-diphenyl-2H-tetrazolium bromide) solution (0.5 mg mL^−1 in medium without FBS) was added to each well. Cells were incubated for 2 h at 37 °C. After this time, the MTT solution was removed and DMSO (100 μL) was added to dissolve the resulting blue formazan crystals. Plates were shaken vigorously (700 rpm) for 10 min. The absorbance was measured at 570 nm with 630 nm as a reference wavelength using a BIO-TEK ELx808 Absorbance Microplate Reader (LabX, Midland, ON, Canada). DMSO was used as a blank and doxorubicin (purchased from Sigma Aldrich) as a positive control. Cell viability was calculated as a percentage of control (cells incubated without the compound). […] CC50 values to represent the mean value calculated from three independent experiments.

[5] = Microsomal stability; format: in vitro ADME, mouse; settings: for half-life: CD-1, read-out: t1/2 (half-time, microsomal stability); for half-life / Clint (intrinsic clearance): in vitro, female mouse microsomes, 37 °C, pH 7.4
Procedure: The tested product and propranolol, used as a reference, were incubated in duplicate (reaction mixture volume of 0.5 mL) with female mouse microsomes (CD-1, 20 mg mL; BD Gentest) at 37 °C in a 50 mM phosphate buffer, pH 7.4, in the presence of MgCl2 (5 mM), NADP (1 mM), glucose-6-phosphate dehydrogenase (G6PD) (0.4 U per mL), and glucose-6-phosphate (5 mM). For the estimation of the intrinsic clearance, 50 μL aliquots were collected at 0, 5, 10, 20, 30, and 40 min and the reaction was stopped with 4 volumes of acetonitrile (ACN) containing the internal standard. After centrifugation at 10 000×g for 10 min at 4 °C, the supernatants were conserved at 4 °C for immediate analysis or placed at −80 °C in case of postponement of the analysis. Controls (time zero and final time point) in triplicate were prepared by the incubation of the internal standard with microsomes denatured by acetonitrile. The LC-MS system used for this study was a Waters Acquity I-Class/Xevo TQD equipped with a Waters Acquity BEH C18 column, 50 by 2.1 mm, 1.7 μm. The mobile phases were 10 mM ammonium acetate (mobile phase A) and acetonitrile with 0.1% formic acid (mobile phase B). The injection volume was 1 μL, and the flow rate was 600 μL min^−1. Chromatographic analysis, with a total duration of 4 min, was made with the following gradient: 0 < t < 0.2 min, 2% mobile phase B; 0.2 < t < 2 min, linear increase to 98% mobile phase B; 2 < t < 2.5 min, 98% mobile phase B; 2.5 < t < 2.6 min, linear decrease to 2% mobile phase B; 2.6 < t < 4 min, 2% mobile phase B. The quantification of each compound was obtained by converting the average of the ratios of the analyte/internal standard surfaces to the percentage of consumed product. The ratio of the control at t0 corresponded to 0% of the product consumed. The calculation of the half-life (t1/2) of each compound in the presence of microsomes was carried out according to the equation t1/2 = (ln2)/k, where k is the first-order degradation constant (the slope of the logarithm of the compound concentration versus incubation time). The intrinsic clearance in vitro (Clint, expressed in mlmin^−1mg) was calculated according to the equation Clint = (dose/AUC∞)/[microsomes], where dose is the initial concentration of the product in the sample, AUC∞ is the area under the concentration–time curve extrapolated to infinity, and [microsomes] is the microsome concentration expressed in mg μL^−1.

[6] = read-out: CC50 HepG2, human HepG2 cell line, reference values

Row | Compound | EC50 [1] [nM] | CC50 [2, 6] [nM] | also measured
1 | O=C1C(O)=C([C@H]2CC[C@H](c3ccc(Cl)cc3)CC2)C(=O)c2ccccc21 [Atovaquone, atovaquone] | 1.3 | > 15600 | –
2 | CCN(CC)CCCC(C)Nc1ccnc2cc(Cl)ccc12 (centres unmarked) [Chloroquine, chloroquine] | 500 | – | –
3 | CC(C)(C)Nc1nc2cc(N3CCCCC3)sc2c(=O)[nH]1 [Compound 1g, 2-tert-Butylamino-6-(piperidin-1-yl)thieno[3,2-d]pyrimidin-4(3H)-one] | – | – | EC50 [3]: 770 ± 130 nM; CC50 at 72 h [4]: 33900 ± 1400 nM; half-life [5]: 40 min; Clint (intrinsic clearance) [5]: 42 μLmin^−1mg; improvement in the half-time versus M1 ([5]; mouse microsomes, piperidine moiety (1g) vs tolyl moiety (M1)): more than 3 fold
4 | Cc1ccc(-c2cc3nc(NC(C)(C)C)[nH]c(=O)c3s2)cc1 [Compound M1, gamhepathiopine, reference compound] | 45 | 24000 | half-life [5]: 11 min; Clint (intrinsic clearance) [5]: 240 μLmin^−1mg
5 | COc1cccc2c1C(=O)c1c(O)c3c(c(O)c1C2=O)C[C@@](O)(C(=O)CO)C[C@@H]3O[C@H]1C[C@H](N)[C@H](O)[C@H](C)O1 [Doxorubicine, doxorubicine] | – | – | CC50 [2]: 200 nM
6 | C[C@H]1c2cccc(O)c2C(=O)C2=C(O)[C@]3(O)C(=O)C(C(N)=O)=C(O)[C@@H](N(C)C)[C@@H]3[C@@H](O)[C@@H]21 [Doxycycline, doxycycline] | 5000 | 20000 | –
7 | Cc1ccc(-c2cc3nc(NC(C)(C)C)[nH]c(=O)c3s2)cc1 [M1 (free base), gamhepathiopine] | 200 | 25600 | –
